For assay [1], the target named is T1, Mitogen-activated protein kinase kinase kinase 14 (Homo sapiens, UniProt Q99558). Put plainly: Inhibition of MAP3K14 in human L363 assessed as decrease in IKKalpha phosphorylation level after 2 hrs by sandwich immuno assay.
A further assay deals with KMS-12-BM. Put plainly: Antiproliferative activity against human KMS-12-BM cells after 96 hrs by CellTiter-Glo luminescence assay. The format is functional, cell-based. On the technique in general: ATP-based viability assays read luminescence as a measure of living cells.
The test system of another assay is JJN-3. Put plainly: Antiproliferative activity against human JJN-3 cells after 96 hrs by CellTiter-Glo luminescence assay. The format is functional, cell-based. The conditions noted are these: JJN-3, 96 h.
The target in assay [2] is T1, Mitogen-activated protein kinase kinase kinase 14. Put plainly: Inhibition of recombinant human GST-tagged MAP3K14 autophosphorylation after 1 hr by Alpha screen assay. For orientation: Bead proximity is the source of the signal in Alpha formats.

T1 sequence (Q99558 whole entry): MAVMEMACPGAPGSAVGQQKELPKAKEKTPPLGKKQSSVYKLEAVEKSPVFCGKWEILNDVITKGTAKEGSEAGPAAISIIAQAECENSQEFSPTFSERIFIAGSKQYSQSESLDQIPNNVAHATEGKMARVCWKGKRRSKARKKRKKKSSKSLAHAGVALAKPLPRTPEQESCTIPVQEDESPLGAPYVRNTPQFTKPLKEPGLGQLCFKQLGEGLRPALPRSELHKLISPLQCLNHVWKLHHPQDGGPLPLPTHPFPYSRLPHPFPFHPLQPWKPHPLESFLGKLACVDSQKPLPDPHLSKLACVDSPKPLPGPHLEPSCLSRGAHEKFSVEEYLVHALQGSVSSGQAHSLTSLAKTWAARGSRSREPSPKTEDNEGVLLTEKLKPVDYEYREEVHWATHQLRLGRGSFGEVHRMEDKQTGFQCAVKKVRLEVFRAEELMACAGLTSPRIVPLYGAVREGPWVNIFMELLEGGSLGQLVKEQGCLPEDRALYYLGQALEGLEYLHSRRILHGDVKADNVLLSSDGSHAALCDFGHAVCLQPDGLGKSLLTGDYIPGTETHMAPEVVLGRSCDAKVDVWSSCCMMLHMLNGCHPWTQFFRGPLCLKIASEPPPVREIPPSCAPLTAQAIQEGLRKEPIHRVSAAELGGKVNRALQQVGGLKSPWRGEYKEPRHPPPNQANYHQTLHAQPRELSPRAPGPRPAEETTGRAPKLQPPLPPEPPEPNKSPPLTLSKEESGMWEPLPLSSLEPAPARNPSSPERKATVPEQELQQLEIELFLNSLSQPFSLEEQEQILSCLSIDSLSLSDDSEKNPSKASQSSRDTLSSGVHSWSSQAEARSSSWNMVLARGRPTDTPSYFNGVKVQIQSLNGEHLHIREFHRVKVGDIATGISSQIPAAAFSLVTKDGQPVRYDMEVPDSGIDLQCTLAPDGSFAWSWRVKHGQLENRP

One may read the IC50 as the midpoint of a concentration-inhibition curve. Regarding `CC(C)Oc1ccc(CO)cc1Nc1nccc(-c2cc(C#N)c3c(c2)[C@@](C)(CO)CN3)n1`, the IC50 was 0.0066 µM in assay [1], more than 10 µM with KMS-12-BM and 0.141 µM in the assay on JJN-3.

Take `[2H]C([2H])(O)c1ccc(C)c(Nc2nccc(-c3cc(C#N)c4c(c3)[C@@](C)(CO)CN4)n2)c1`: the half-maximal inhibitory concentration (IC50) in assay [1] is 0.0022 µM; in the assay on KMS-12-BM it was more than 10 µM; in the assay with JJN-3, 0.091 µM.

Consider `Cc1cc(F)c(CO)cc1Nc1nccc(-c2cc(C#N)c3c(c2)[C@@](C)(CO)CN3)n1`, for which the values for the half-maximal inhibitory concentration (IC50) (in assay [1]; in the assay with KMS-12-BM; in the assay on JJN-3) were 0.0078 µM, more than 10 µM and 0.272 µM, respectively.

As for `CC(C)(O)COc1ccc(C#N)cc1Nc1nccc(-c2cc(C#N)c3c(c2)[C@@](C)(CO)CN3)n1`, the IC50 is 0.0257 µM in assay [1], 4.9 µM in the assay with KMS-12-BM and 0.138 µM in the assay with JJN-3.

`Cc1ccc(C#N)cc1Nc1ncc(F)c(-c2cc(C#N)c3c(c2)[C@@](C)(CO)CN3)n1`: the figures for the half-maximal inhibitory concentration (IC50) (in assay [1]; in the assay with KMS-12-BM; in the assay with JJN-3) were 0.0012 µM, more than 10 µM and 0.302 µM, respectively.

In the case of `CN1CC(F)C(Oc2ccc(C#N)cc2Nc2nccc(-c3cc(C#N)c4c(c3)[C@@](C)(CO)CN4)n2)C1` (some centres not stated), the concentration for half-maximal inhibition (IC50) in assay [1] was 0.0214 µM; with KMS-12-BM, more than 10 µM; in the assay with JJN-3, 0.741 µM.

With `C[C@]1(CO)CNc2c(C#N)cc(-c3ccnc(Nc4cc(C#N)ccc4OC4CC4)n3)cc21`, the figures for the half-maximal inhibitory concentration (IC50) (in assay [1]; in the assay on KMS-12-BM; with JJN-3) were 0.0115 µM, 1.23 µM and 0.067 µM, respectively.

Regarding `CNC(=O)c1ccc(OC(C)C)c(Nc2nccc(-c3cc(C#N)c4c(c3)[C@@](C)(CO)CN4)n2)c1`, the IC50 in assay [1] was 0.0195 µM; in the assay with KMS-12-BM it was more than 10 µM; with JJN-3, 0.288 µM.

Take `Cc1cc(F)c(C#N)cc1Nc1nccc(-c2cc(C#N)c3c(c2)[C@@](C)(CO)CN3)n1`: the concentration for half-maximal inhibition (IC50) in assay [1] was 0.006 µM; in the assay on KMS-12-BM it was more than 10 µM; in the assay on JJN-3 it was 0.617 µM.

For the molecule `Cc1cc(CCN2CCOCC2)c(C#N)cc1Nc1nccc(-c2cc(C#N)c3c(c2)[C@@](C)(CO)CN3)n1`, the IC50 in assay [1] is 0.0013 µM; in the assay with KMS-12-BM it was more than 10 µM; in the assay on JJN-3 it was 0.029 µM.

Consider `CNC(=O)c1ccc(C)c(Nc2nccc(-c3cc(C#N)c4c(c3)[C@@](C)(CO)CN4)n2)c1`, for which the half-inhibitory concentration (IC50) is 0.0018 µM in assay [2], 0.0022 µM in assay [1], 5.19 µM with KMS-12-BM and 0.085 µM with JJN-3.

Consider `C[C@]1(CO)CNc2c(C#N)cc(-c3ccnc(Nc4cc(C#N)ccc4CO)n3)cc21`, for which the IC50 in assay [1] is 0.0063 µM; with KMS-12-BM, more than 10 µM; with JJN-3, 0.24 µM.

Values taken from ChEMBL document CHEMBL4190357, “New Substituted Cyanoindoline Derivatives as MAP3K14 Kinase Inhibitors for the Treatment of Cancer and Autoimmune Disorders” (ACS Med Chem Lett, 2017).
